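Assay format: 96-well plates, 48-hour exposure. TGI: total growth inhibition.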 Where a SMILES comes first, the peptide text is derived from it. The star is where a group is joined. Boc = CC(C)(C)OC(=O)*; OBn = c1ccc(CO*)cc1
How the values were obtained:
Assay in all cases: NCI anticancer screen, dose series, 48 h
K-562 leukemia = system: K-562 leukemia
HOP-62 NSCLC = system: HOP-62 NSCLC
SF-295 CNS = system: SF-295 CNS
COLO 205 colon = system: COLO 205 colon
SK-MEL-2 melanoma = system: SK-MEL-2 melanoma
OVCAR-4 ovarian = system: OVCAR-4 ovarian
OVCAR-8 ovarian = system: OVCAR-8 ovarian
RXF 393 renal = system: RXF 393 renal
PC-3 prostate = system: PC-3 prostate
HCT-116 colon = system: HCT-116 colon
MDA-N = system: MDA-N
UACC-62 melanoma = system: UACC-62 melanoma
SK-MEL-5 melanoma = system: SK-MEL-5 melanoma
A498 renal = system: A498 renal
HT29 colon = system: HT29 colon
ACHN renal = system: ACHN renal
MDA-MB-231 breast = system: MDA-MB-231 breast

| SMILES | TGI (K-562 leukemia) | TGI (HOP-62 NSCLC) | TGI (SF-295 CNS) | TGI (COLO 205 colon) | TGI (SK-MEL-2 melanoma) | TGI (OVCAR-4 ovarian) | TGI (OVCAR-8 ovarian) | TGI (RXF 393 renal) | TGI (PC-3 prostate) | TGI (HCT-116 colon) | TGI (MDA-N) | TGI (UACC-62 melanoma) | TGI (SK-MEL-5 melanoma) | TGI (A498 renal) | TGI (HT29 colon) | TGI (ACHN renal) | TGI (MDA-MB-231 breast) |
| --- | --- | --- | --- | --- | --- | --- | --- | --- | --- | --- | --- | --- | --- | --- | --- | --- | --- |
| Cc1ccc(S(=O)(=O)NNC2(NS(=O)(=O)c3ccc(Cl)cc3)C(Cl)=C(Cl)C(=O)c3ccccc32)cc1 (stereo not drawn) | 36.1 µM | 54.8 µM | 51.4 µM | 34.9 µM | 50.6 µM | 30.1 µM | 87.8 µM | 31.1 µM | 33.5 µM | 32.4 µM | 32.2 µM | 31 µM | 28.7 µM | 36.7 µM | 35.1 µM | 29.7 µM | 44.9 µM |
| CCOc1cc2c(cc1OC(C)=O)C(=O)CC[C@H]1C3CC[C@H](OC(C)=O)[C@@]3(C)CC[C@H]21 (stereo partly drawn) | > 100 µM | > 100 µM | > 100 µM | > 100 µM | > 100 µM | > 100 µM | > 100 µM | > 100 µM | > 100 µM | > 100 µM | > 100 µM | > 100 µM | > 100 µM | > 100 µM | > 100 µM | > 100 µM | > 100 µM |
| O=C1/C(=C/c2ccccc2)CCC/C1=C\c1ccc(O)c(CN2CCCCC2)c1 | > 100 µM | 32 µM | 13 µM | 15.4 µM | 29.2 µM | 13.8 µM | 9.54 µM | 26.7 µM | 13.8 µM | 2.97 µM | 8.11 µM | 10.5 µM | 9.62 µM | 12.5 µM | 4.04 µM | 3.8 µM | 6.28 µM |
| Nc1nc(N)c2[nH]cnc2n1 (tested in a mixture with another compound) | > 100 µM | > 100 µM | > 100 µM | > 100 µM | 77.5 µM | > 100 µM | > 100 µM | 80.6 µM | 94.6 µM | 41.8 µM | > 100 µM | 24.9 µM | 85.3 µM | 45.1 µM | > 100 µM | 48.6 µM | > 100 µM |
| CC(C)/C(Cl)=N\OC(=O)Nc1ccc(F)cc1F | > 100 µM | 31.8 µM | 28.3 µM | 3.52 µM | 28.2 µM | 10.3 µM | 31.6 µM | 12.6 µM | 31.6 µM | 15.7 µM | 22.7 µM | 38.7 µM | 27.4 µM | 31.1 µM | 15.8 µM | 8.53 µM | 6.34 µM |
| CCCCOCCOC1=CC(=O)c2c(O)ccc(O)c2C1=O | > 10 µM | 1.8 µM | 3.02 µM | 2.36 µM | 3.26 µM | 3.33 µM | – | 3.02 µM | 6.69 µM | 2.85 µM | 0.341 µM | 2.98 µM | 0.422 µM | 3 µM | 3.12 µM | 3.1 µM | 3.85 µM |
| CCOC(=O)C1(C/C=C\CBr)CCCCCCCCCCC1=O (stereo not drawn) | 20.2 µM | 34.7 µM | 31.7 µM | 33.7 µM | 36.5 µM | 27.4 µM | 31.4 µM | 25.4 µM | 25.1 µM | > 54.2 µM | 38.4 µM | 31.9 µM | 26.5 µM | 29.1 µM | 34.3 µM | 32 µM | 17.8 µM |
| COc1cc(Oc2nc3c(N)cc(C(F)(F)F)cc3nc2-c2ccccc2)cc(OC)c1OC | 6.6 µM | > 46.7 µM | > 29 µM | > 80.7 µM | 21 µM | > 100 µM | > 46.3 µM | 52 µM | 29.5 µM | > 45.3 µM | 3.08 µM | 15.9 µM | 48.6 µM | 81.5 µM | 5.31 µM | 32.5 µM | > 100 µM |
| CC(=O)N(CN1C(=O)CCC1C(=O)O)c1cccc(O)c1 (stereo not drawn) | > 100 µM | > 100 µM | > 100 µM | > 100 µM | > 100 µM | > 100 µM | > 100 µM | – | > 100 µM | > 100 µM | > 100 µM | > 100 µM | > 100 µM | > 100 µM | > 100 µM | > 100 µM | > 100 µM |
| CC(NC(=O)C(Cc1ccccc1)NC(=O)C(Cc1ccccc1)NC(=O)OC(C)(C)C)C(=O)OCc1ccccc1 (stereo not drawn) (Boc-Phe-Phe-Ala-OBn; configuration not given here) | > 100 µM | > 100 µM | > 100 µM | > 100 µM | > 100 µM | – | > 100 µM | > 100 µM | > 100 µM | > 100 µM | > 100 µM | > 100 µM | > 100 µM | > 100 µM | > 100 µM | – | > 100 µM |
| C/C(CC1SCCCS1)=C(/C)CC1SCCCS1 | > 100 µM | > 100 µM | > 100 µM | > 100 µM | > 100 µM | > 100 µM | > 100 µM | > 100 µM | > 100 µM | > 100 µM | > 100 µM | > 100 µM | > 100 µM | > 100 µM | > 100 µM | > 100 µM | > 100 µM |
| c1ccc2c(c1)nc1n2C2CCC(C2)N1 (stereo not drawn) | > 10 µM | > 10 µM | > 10 µM | > 10 µM | > 10 µM | > 10 µM | > 10 µM | > 10 µM | > 10 µM | > 10 µM | > 10 µM | > 10 µM | > 10 µM | > 10 µM | > 10 µM | – | > 10 µM |
| Cc1n[nH]c(=O)n1/N=C\CC/C=N\n1c(C)n[nH]c1=O | > 100 µM | > 100 µM | > 100 µM | > 100 µM | > 100 µM | > 100 µM | > 100 µM | > 100 µM | > 100 µM | > 100 µM | > 100 µM | > 100 µM | > 100 µM | > 100 µM | > 100 µM | > 100 µM | > 100 µM |
| CC1(C)OC(=O)C2(O1)C(=O)C1CCCCC12 (stereo not drawn) | > 100 µM | > 100 µM | > 100 µM | > 100 µM | > 100 µM | > 100 µM | > 100 µM | > 100 µM | > 100 µM | > 100 µM | > 100 µM | > 100 µM | > 100 µM | > 100 µM | > 100 µM | > 100 µM | > 100 µM |

Source: PubChem BioAssay (NCI)
